In patent US7807676B2, “Diketo-Piperazine and Piperidine derivatives as antiviral agents” (priority 2006, dated 2010):

System: HIV-1 single-round infectious reporter virus
Experiment: Single-round infectious HIV-1 luciferase reporter virus infection of HeLa CD4 cells (antiviral EC50)
Assay type: cell-based
Details: Human immunodeficiency virus 1, HeLa, read-out: EC50 Group from Table 3
Method: • Virus production—Human embryonic Kidney cell line, 293T, was propagated in Dulbecco's Modified Eagle Medium (Invitrogen, Carlsbad, Calif.) containing 10% fetal Bovine serum (FBS, Sigma, St. Louis, Mo.). • Virus infection—Human epithelial cell line, HeLa, expressing the HIV-1 receptor CD4 was propagated in Dulbecco's Modified Eagle Medium (Invitrogen, Carlsbad, Calif.) containing 10% fetal Bovine serum (FBS, Sigma, St. Louis, Mo.) and supplemented with 0.2 mg/mL Geneticin (Invitrogen, Carlsbad, Calif.). Virus-Single-round infectious reporter virus was produced by co-transfecting human embryonic Kidney 293 cells with an HIV-1 envelope DNA expression vector and a proviral cDNA containing an envelope deletion mutation and the luciferase reporter gene inserted in place of HIV-1 nef sequences (Chen et al, Ref. 41). Transfections were performed using lipofectAMINE PLUS reagent as described by the manufacturer (Invitrogen, Carlsbad, Calif.). Experiment • 1. HeLa CD4 cells were plated in 96 well plates at a cell density of 1×10^4 cells per well in 100 μl Dulbecco's Modified Eagle Medium containing 10% fetal Bovine serum and incubated overnight. • 2. Compound was added in a 2 μl dimethylsulfoxide solution, so that the final assay concentration would be ≦10 μM. • 3. 100 μl of single-round infectious reporter virus in Dulbecco's Modified Eagle Medium was then added to the plated cells and compound at an approximate multiplicity of infection (MOI) of 0.01, resulting in a final volume of 200 μl per well. • 4. Virally-infected cells were incubated at 37 degrees Celsius, in a CO2 incubator, and harvested 72 h after infection. • 5. Viral infection was monitored by measuring luciferase expression from viral DNA in the infected cells using a luciferase reporter gene assay kit, as described by the manufacturer (Roche Molecular Biochemicals, Indianapolis, Ind.). Infected cell supernatants were removed and 50 μl of lysis buffer was added per well. After 15 minutes, 50 μl of freshly-reconstituted luciferase assay reagent was added per well. Luciferase activity was then quantified by measuring luminescence using a Wallac microbeta scintillation counter. • 6. The percent inhibition for each compound was calculated by quantifying the level of luciferase expression in cells infected in the presence of each compound as a percentage of that observed for cells infected in the absence of compound and subtracting such a determined value from 100. • 7. An EC50 provides a method for comparing the antiviral potency of the compounds of this disclosure. The effective concentration for fifty percent inhibition (EC50) was calculated with the Microsoft Excel Xlfit curve fitting software. For each compound, curves were generated from percent inhibition calculated at 10 different concentrations by using a four parameter logistic model (model 205). Table 3 is the key for the data in Table 4. Results

`COc1cnc(-n2ccnn2)c2[nH]cc(C(=O)C(=O)N3CCN(c4nnnn4-c4ccccc4)CC3)c12` [A-1] and `O=C(C(=O)N1CCN(c2nnnn2-c2ccccc2)CC1)c1c[nH]c2c(-n3ccnn3)ncc(F)c12` [A-5] cannot be ordered by EC50: < 500 nM for the first, < 500 nM for the second.

First: O=C(C(=O)N1CCN(c2ccc(-c3ccccc3)cc2)CC1)c1c[nH]c2c(-n3ccnn3)ncc(F)c12 [A-2]
Second: O=C(C(=O)N1CCN(c2cccc(-c3ccccc3)c2)CC1)c1c[nH]c2c(-n3ccnn3)ncc(F)c12 [A-3]
The EC50 of the first is higher: > 500 nM for the first, < 500 nM for the second. The second is the more potent here.

`O=C(C(=O)N1CCN(c2ccccc2-c2ccccc2)CC1)c1c[nH]c2c(-n3ccnn3)ncc(F)c12` [A-4] and `O=C(C(=O)N1CCN(c2nccc(-c3ccccc3)n2)CC1)c1c[nH]c2c(-n3ccnn3)ncc(F)c12` [A-7] cannot be ordered by EC50: < 500 nM for the first, < 500 nM for the second.

`O=C(C(=O)N1CCN(c2cc(O)nnc2-c2ccccc2)CC1)c1c[nH]c2c(-n3ccnn3)ncc(F)c12` [A-6] and `O=C(C(=O)N1CCN(c2nsnc2-c2ccccc2)CC1)c1c[nH]c2c(-n3ccnn3)ncc(F)c12` [A-13] cannot be ordered by EC50: < 500 nM for the first, < 500 nM for the second.

`O=C(C(=O)N1CCN(c2nc(-c3ccccc3)cs2)CC1)c1c[nH]c2c(-n3ccnn3)ncc(F)c12` [A-8] and `O=C(C(=O)N1CCN(c2nc(-c3ccccc3)ns2)CC1)c1c[nH]c2c(-n3ccnn3)ncc(F)c12` [A-28] cannot be ordered by EC50: < 500 nM for the first, < 500 nM for the second.

`COc1cnc(-n2cnc(C)n2)c2[nH]cc(C(=O)C(=O)N3CCN(c4nnnn4-c4ccccc4)CC3)c12` [A-9] and `COc1cnc(-n2cnc(C)n2)c2[nH]cc(C(=O)C(=O)N3CCN(c4nnnn4-c4ccccc4)C[C@H]3C)c12` [A-30] cannot be ordered by EC50: < 500 nM for the first, < 500 nM for the second.

`O=C(C(=O)N1CCN(c2nnnn2-c2ccccc2)CC1)c1c[nH]c2ncccc12` [A-10] and `COc1ccnc2[nH]cc(C(=O)C(=O)N3CCN(c4nnnn4-c4ccccc4)CC3)c12` [A-11] cannot be ordered by EC50: < 500 nM for the first, < 500 nM for the second.

`COc1ncc(OC)c2c(C(=O)C(=O)N3CCN(c4nnnn4-c4ccccc4)CC3)c[nH]c12` [A-12] and `COC(=O)c1ccc(F)c2c(C(=O)C(=O)N3CCN(c4nnnn4-c4ccccc4)CC3)c[nH]c12` [A-25] cannot be ordered by EC50: < 500 nM for the first, < 500 nM for the second.

`C[C@@H]1CN(c2nnnn2-c2ccccc2)CCN1C(=O)C(=O)c1c[nH]c2c(-n3ccnn3)ncc(F)c12` [A-14] and `C[C@H]1CN(c2nnnn2-c2ccccc2)CCN1C(=O)C(=O)c1c[nH]c2c(-n3ccnn3)ncc(F)c12` [A-15] cannot be ordered by EC50: < 500 nM for the first, < 500 nM for the second.

`O=C(C(=O)N1CCC(c2nc3ccccc3n2-c2ccccc2)CC1)c1c[nH]c2c(-n3ccnn3)ncc(F)c12` [A-16] and `O=C(C(=O)N1CCN(c2nnc(O)n2-c2ccccc2)CC1)c1c[nH]c2c(-n3ccnn3)ncc(F)c12` [A-22] cannot be ordered by EC50: < 500 nM for the first, < 500 nM for the second.

`O=C(C(=O)N1CCN(c2nccnc2-c2ccccc2)CC1)c1c[nH]c2c(-n3ccnn3)ncc(F)c12` [A-17] and `O=C(C(=O)N1CCN(c2nncn2-c2ccccc2)CC1)c1c[nH]c2c(-n3ccnn3)ncc(F)c12` [A-20] cannot be ordered by EC50: < 500 nM for the first, < 500 nM for the second.

Compared with `O=C(C(=O)N1CCN([C@H]2CCCC[C@H]2c2ccccc2)CC1)c1c[nH]c2c(-n3ccnn3)ncc(F)c12` [A-19], `O=C(C(=O)N1CCC(N2CCC2c2ccccc2)CC1)c1c[nH]c2c(-n3ccnn3)ncc(F)c12` (stereo not drawn) [A-24] is higher in EC50: < 500 nM for the first, > 500 nM for the second. The first is the more potent here.

Going from `O=C(C(=O)N1CCC(N2C(=O)CC2c2ccccc2)CC1)c1c[nH]c2c(-n3ccnn3)ncc(F)c12` (stereo not drawn) [A-21] to `O=C(C(=O)N1CCN(N2C(=O)CC2c2ccccc2)CC1)c1c[nH]c2c(-n3ccnn3)ncc(F)c12` (stereo not drawn) [A-23], the EC50 rises from < 500 nM to > 500 nM. The first is the more potent here.

`C[C@@H]1CN(c2nnnn2-c2ccccc2)[C@@H](C)CN1C(=O)C(=O)c1c[nH]c2c(-n3ccnn3)ncc(F)c12` [A-26] and `COc1cnc(-n2cnc(C)n2)c2[nH]cc(C(=O)C(=O)N3C[C@H](C)N(c4nnnn4-c4ccccc4)C[C@H]3C)c12` [A-32] cannot be ordered by EC50: < 500 nM for the first, < 500 nM for the second.

`O=C(C(=O)N1CCN(c2nnnn2-c2ccccc2)CC1)c1c[nH]c2cccc(F)c12` [A-27] and `COc1cnc(-n2cnc(C)n2)c2[nH]cc(C(=O)C(=O)N3CCN(c4nnnn4-c4ccccc4)C[C@@H]3C)c12` [A-31] cannot be ordered by EC50: < 500 nM for the first, < 500 nM for the second.
